Patent US20210260022A1, “SYNERGY FOR INCREASING ENERGY EXPENDITURE AND INSULIN SENSITIVITY” (The Board of Supervisors of Louisiana State University and …, priority 2018, published 2021)

How the values were obtained:
PPARα = target: T1, PPARα (Homo sapiens, UniProt Q07869); conditions: reporter gene assays; cited from earlier work
T1 sequence (Q07869 1-468): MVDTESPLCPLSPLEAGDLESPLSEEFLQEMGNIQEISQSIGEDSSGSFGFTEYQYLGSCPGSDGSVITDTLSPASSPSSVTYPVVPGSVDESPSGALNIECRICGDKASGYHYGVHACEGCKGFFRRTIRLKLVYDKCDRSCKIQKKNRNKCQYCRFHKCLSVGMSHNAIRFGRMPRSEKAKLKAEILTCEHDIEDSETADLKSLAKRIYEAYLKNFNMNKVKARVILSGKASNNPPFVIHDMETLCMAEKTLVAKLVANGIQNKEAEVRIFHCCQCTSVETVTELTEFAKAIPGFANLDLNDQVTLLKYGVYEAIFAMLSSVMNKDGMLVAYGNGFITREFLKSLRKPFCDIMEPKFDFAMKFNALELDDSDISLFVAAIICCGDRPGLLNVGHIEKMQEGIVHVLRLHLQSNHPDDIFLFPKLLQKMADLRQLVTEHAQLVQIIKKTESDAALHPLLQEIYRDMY

human adipocytes [1] = test: Western blotting of protein levels in treated human adipocytes; format: cell-based
Description: Referring to FIG. 2, human adipocyte cultures were treated with naringenin for 0, 3 or 7d. Total protein was isolated and analyzed by Western Blotting. […] TGX SDS-PAGE gels (7.5%TM, BioRad) were used to separate 50 μg of solubilized protein per sample. Following transfer, nitrocellulose membranes were probed overnight at 4° C. with primary monoclonal antibodies against adiponectin, NAMPT, and PPARγ (Santa Cruz), PGC-1α monoclonal (4C1.3, EMDmillipore) and β-Actin (A5316, Sigma). HRP-linked anti-rabbit (12-348, Sigma) and anti-mouse (A[…], Sigma) were used to detect specific antibody-antigen complexes. Proteins were visualized by chemiluminescence (Western Lightning Plus-ECL, PerkinElmer, Waltham, Mass.). Bands were quantified using ImageJ software and values shown are normalized to β-actin.

[2] = cell culture and animal studies; cited from earlier work
[3] = 150 mg three times a day for eight weeks (Murugesan et al., 2020); cited from earlier work
human adipocytes [4] = test: mRNA expression (Taqman RT-PCR) in differentiated human adipocytes after 7 day treatment; format: cell-based
Description: Carotenoids tested were β-carotene (βCar), Lycopene (lyco) and lutein. […] In our preclinical lab at PBRC, human subcutaneous adipocyte cell cultures were treated with naringenin at a concentration of 10 μM for seven days. […] Differentiated human adipocytes were treated with 10 μM naringenin for 7 days. Gene expression was analyzed using Taqman RT-PCR and values are expressed as fold increase over untreated controls (n=5). […] Activated AMPK induces glucose consumption and fat oxidation in adipose tissue. Carotenoids are vitamin A precursors found in foods and their consumption can cause reduction in adiposity and insulin resistance in pediatric clinical trials (Canas et al., 2012; Canas et al., 2017). After ingestion, they are metabolized into retinoid ligands for retinoic acid receptors (RAR) and retinoic X receptors (RXR) which are localized in the cell nucleus. RXRs form heterodimers with PPARs in transcriptional complexes known to target genes for energy expenditure and fat oxidation (Bonet et al., 2015).

SMILES: O=C1C[C@@H](c2ccc(O)cc2)Oc2cc(O)cc(O)c21 [naringenin]
- activation of PPARα (PPARα): Direct activation
- protein levels of UCP1, GLUT4, and ChREBP (human adipocytes [1]; 10 μM naringenin for 7 days): Corresponding increases
- AMPK activation (phospho-AMPK) (human adipocytes [1]; naringenin 0, 3 or 7d): activates AMPK
- concentration needed to elicit a physiologic response [2]: 1-200 μm
- body weight reduction [3]: 2.5%
- expression of UCP1, GLUT4 and CPT-1 genes (human adipocytes [4]; 10 μM for seven days, human subcutaneous adipocytes): Significant increases
- Adiponectin RNA expression and adiponectin protein levels (human adipocytes [4]; naringenin at 10 micromolar): went up
- RNA and protein expression of uncoupling protein-1, adipose tissue glyceride lipase, carnitine palmitoyl transferase-1, glucose transporter-4, ChREBP alpha and beta (human adipocytes [4]; naringenin at 10 micromolar): increasing RNA and protein expression
